The subject of series [1] is human lung cancer NCI-H460 cell line. Description: MTT cytotoxicity assay, lung cancer NCI-H460 cell line. The class given is cell-based. Particulars: mean ± SD. How it is done:
(§1) Human cancer cell lines (lung cancer NCI-H460 cell line, pancreatic cancer BxPC-3 cell line, colon cancer HT-29 cell line) were purchased from American Type Cell Culture Collection (ATCC, Manassas, VA, USA). Cells were maintained in RPMI-1640 medium supplemented with 10% (v/v) heat-inactivated fetal bovine serum, penicillin-streptomycin (100 U/mL-100 […]) at 37 °C in a humidified atmosphere (5% CO2–95% air). All tested derivatives were dissolved in 100% cell culture grade DMSO. Cells (3 × 10^3 per well) were seeded in 96-well plates for 24 h. Then, cells were treated with the tested compounds in six concentrations for 72 h. Cell viability was assessed by MTT assay. The absorbance at 490 nm was measured with a Microplate Reader (Molecular Devices, Silicon Valley, CA, USA). The data were analyzed by Origin 8.5 (OriginLab, Northampton, MA, USA).
A general note: Tetrazolium dyes change colour on reduction, which living cells bring about.

Series [2] relates to H22 hepatoma carcinoma cells transplanted tumor. Description: H22 subcutaneous transplanted tumor model, intravenous administration. Particulars: for Tumor Volume (D15): 14 consecutive days; for Tumor Volume (D1): D1 (baseline), mean ± SD; for Tumor Weight: excised at end of administration; for IR (tumor weight inhibition rate): IR = (1 − TWt/TWc) × 100%. How it is done:
The anticancer effect of the compound 15p was further evaluated against H22 tumor-bearing mice models by intravenous injection at doses of 2 mg/kg, or 4 mg/kg, two or three times a week, and for 14 consecutive days. Docetaxel (10 mg/kg), plinabulin (4 mg/kg), and cyclophosphamide (20 mg/kg) were used as the positive controls.
Balb/c mice (4–6 weeks old, 16–18 g) were purchased from Shanghai Sippr-BK laboratory animal Co. Ltd. The animal study protocol was approved by Institutional Review Board of Science and Technology Division of Linyi University (review opinion on behalf of the Ethics Committee) (The protocol code is LYU20220107, provided on 10 March 2022). H22 cells were grown in RPMI-1640 midium supplemented with 10% fetal bovine serum, and maintained at 37 °C in humidified 5% CO2. Cells were passaged when they reached 70–80% confluence. Viable H22 cells (1 × 10^7 cells/0.2 ml 0.9% sodium chloride) were injected into the peritoneal cavity of BALB/C mice to trigger ascitic cell growth. Later, cells were harvested and suspended. H22 cancer cells (2 × 10^7 cells/0.1 ml 0.9% sodium chloride cells) were subcutaneously injected into the right flank of each mouse. After implantation, the tumor size was measured with an electronic caliper twice a week, and the tumor volume was calculated according to the following formula: tumor volume (mm^3) = 0.5 × length × width^2. When the tumor volume reached about 130 mm^3, the xenograft tumor-bearing BALB/C mice were randomly placed into six groups at 10 mice per group: vehicle, plinabulin (4 mg/kg), 15p ([…]), 15p ([…]), cyclophosphamide (20 mg/kg) and docetaxel (10 mg/kg) groups. Docetaxel, plinabulin, and cyclophosphamide were chosen as positive control drug. The reference compound docetaxel and cyclophosphamide were completely dissolved in isotonic saline. […] The solution of compound 15p was diluted with the concentrated solution and in isotonic saline at a calculated ratio. The solutions of plinabulin were made up according to similar methods. The mice received intravenous administration (iv) every two or three days for consecutive 14 days. The tumor volumes and the body weights were recorded every two or three days after treatment. At the end of the administration period, the animals were euthanized by dislocation, and the tumor bulks were peeled off conforming to the Guide for the Animal use and Management of Shanghai Medicilon Biological Medicine Co. Ltd. The tumor volume was calculated according to the Principles of Non-clinical Research Techniques for Anti-tumor Drugs of Cytotoxic Drugs by China Food and Drug Administration.

For series [3], the system named is colon cancer HT-29 cell line. In words: MTT cytotoxicity assay, colon cancer HT-29 cell line. The class given is cell-based. Particulars: Homo sapiens, 72 h, mean ± SD. How it is done:
as §1

Series [4] has as its system microtubules in NCI-H460 cells. Description: Immunofluorescence assay of microtubules (β-tubulin/DAPI staining). The class given is cell-based, human. Particulars: 24 h. The procedure:
To further explore the effect of phenylahistin derivatives 1 and 15p on microtubules in cancer cells, an immunofluorescence assay was performed. […] The inhibitory activities were consistent with the previously shown anti-proliferative activities.
NCI-H460 cells were seeded in 24-well plate (with coverslips plated) at the density of 5 × 10^4 cells. […] Then, cells were fixed with 4% cold paraformaldehyde at 4 °C for 15 min and then permeabilized in 0.05% Triton X-100 for 10 min. The cells were blocked in 1% BSA for 30 min. Microtubules were detected by incubation with a monoclonal anti-β-tubulin (β-tubulin antibody was obtained from Servicebio, Wuhan, China.) at 4 °C for 12 h. Subsequently, the cells were washed with PBS and incubated with a FITC-conjugated anti-mouse IgG antibody. Nuclei were stained with DAPI (G1012, Servicebio, Wuhan, China). The coverslips were visualized under fluorescence microscope (Nikon Eclipse C1, Nikon, Japan) and an image-forming system (Nikon DS-U3, Nikon, Tokyo, Japan).

Series [5] concerns pancreatic cancer BxPC-3 cell line. Description: MTT cytotoxicity assay, pancreatic cancer BxPC-3 cell line. The class given is cell-based. Particulars: Homo sapiens, 72 h, mean ± SD. How it is done:
as §1

[6] abbreviates: 10 mg/kg iv, listed as docetaxel.
Setting [7] is: 20 mg/kg iv, listed as cyclophosphamide.
The mark [8] stands for this setting: 4 mg/kg iv, listed as plinabulin.

The structures appear in SMILES notation. Marks after values point to notes of the source that are not given here.

Compound `Cc1c(/C=c2\[nH]c(=O)/c(=C/c3cccc(C(=O)c4ccc(F)cc4)c3)[nH]c2=O)ncn1CCCN` [16c] showed a melting point of 247 to 248 °C. The IC50 in series [1] (Homo sapiens, NCI-H460, 72 h) was determined as 103 ± 11.7 nM.
Regarding `CC(=O)O[C@@]12CO[C@@H]1C[C@H](O)[C@@]1(C)C(=O)[C@H](O)C3=C(C)[C@@H](OC(=O)[C@H](O)[C@@H](NC(=O)OC(C)(C)C)c4ccccc4)C[C@@](O)([C@@H](OC(=O)c4ccccc4)[C@H]21)C3(C)C` [Docetaxel], in series [2] (10 mg/kg iv), the “Tumor Volume (D15)” value is given as 903.6 ± 421.7* mm^3, the “Tumor Volume (D1)” value worked out at 103.6 ± 30.75 mm^3, the “Tumor Weight” value came out at 0.55 ± 0.22 g and the “IR (tumor weight inhibition rate)” value is listed as 51.6%. For the same compound, in series [2] (setting [6]), the “Tumor Volume (D15)” value is reported as 903.6 mm^3 and the “Tumor Weight” value was found to be 0.55 g.
On to `CCCn1cnc(/C=c2\[nH]c(=O)/c(=C/c3cccc(Oc4ccc(F)cc4)c3)[nH]c2=O)c1C(C)C` [15h], for which the melting point lay in the range of 201 to 203 °C. This compound came in with an IC50 in series [1] (Homo sapiens, NCI-H460, 72 h) of 5.4 ± 0.15 nM.
In turn, `Cc1c(/C=c2\[nH]c(=O)/c(=C/c3cccc(C(=O)c4ccc(F)cc4)c3)[nH]c2=O)ncn1CCN` [16a] displayed a melting point of 180 to 182 °C. The IC50 in series [1] (Homo sapiens, NCI-H460, 72 h) was determined as 33.4 ± 9.59 nM.
`O=P1(N(CCCl)CCCl)NCCCO1` (stereo not shown) [Cyclophosphamide]: in series [2] (20 mg/kg iv), the “Body weight compared to the control group” value is on record as “decreased the body weights”, the “Tumor Volume (D15)” value is on record as 687.2 ± 288.6* mm^3, the “Tumor Volume (D1)” value was determined as 105.1 ± 30.26 mm^3 and the “Tumor Weight” value is on record as 0.42 ± 0.24 g. Also, in series [2] (20 mg/kg iv), the “IR (tumor weight inhibition rate)” value is given as 62.6%. In addition, in series [2] (setting [7]), the “Tumor Volume (D15)” value was found to be 687.2 mm^3 and the “Tumor Weight” value was determined as 0.42 g.
`CC(C)c1c(/C=c2\[nH]c(=O)/c(=C/c3cccc(C(=O)c4ccc(F)cc4)c3)[nH]c2=O)ncn1CCCNC(=O)OC(C)(C)C` [15o] yielded a melting point of 179 to 180 °C. The same compound showed an IC50 in series [1] (Homo sapiens, NCI-H460, 72 h) of 12.7 ± 0.71 nM.
The corresponding values for `CCn1cnc(/C=c2\[nH]c(=O)/c(=C/c3cccc(C(=O)c4ccc(F)cc4)c3)[nH]c2=O)c1C` [15d] are 227 to 229 °C and 16.9 ± 1.5 nM.
The corresponding values for `CCn1cnc(/C=c2\[nH]c(=O)/c(=C/c3cccc(C(=O)c4ccc(F)cc4)c3)[nH]c2=O)c1C(C)C` [15f] are 234 to 236 °C and 2.01 ± 0.19 nM.
In the same order, the values of `CC(C)c1c(/C=c2\[nH]c(=O)/c(=C/c3cccc(Oc4ccc(F)cc4)c3)[nH]c2=O)ncn1C` [15b] are 218 to 219 °C and 40.4 ± 0.82 nM.
Compound `CCCn1cnc(/C=c2\[nH]c(=O)/c(=C/c3cccc(C(=O)c4ccc(F)cc4)c3)[nH]c2=O)c1C` [15g] displayed a melting point of 214 to 216 °C. The same compound gave an IC50 in series [1] (Homo sapiens, NCI-H460, 72 h) of 4.93 ± 0.25 nM.
The corresponding values for `Cc1c(/C=c2\[nH]c(=O)/c(=C/c3cccc(C(=O)c4ccc(F)cc4)c3)[nH]c2=O)ncn1CCNC(=O)OC(C)(C)C` [15l] are 189 to 191 °C and 105 ± 11.7 nM.
As for `CC(C)(C)c1[nH]cnc1/C=c1\[nH]c(=O)/c(=C/c2ccccc2)[nH]c1=O` [Plinabulin], the IC50 in series [3] came to 6.6 ± 1.6 nM. Further, in series [4] (10 nM), the “Effect on microtubule networks” value was “microtubule networks were damaged”. Also, in series [5], the IC50 turned out to be 5.8 ± 0.2 nM. Also, the IC50 in series [1] (Homo sapiens, NCI-H460, 72 h) is 26.2 ± 3.2 nM. Moreover, in series [2] (4 mg/kg iv), the “Tumor Volume (D15)” value stood at 1425.3 ± 411.2 mm^3, the “Tumor Volume (D1)” value turned out to be 104.7 ± 26.66 mm^3, the “Tumor Weight” value amounted to 0.77 ± 0.31 g and the “IR (tumor weight inhibition rate)” value is 31.9%. In series [2] (setting [8]), the “Tumor Volume (D15)” value is listed as 1425.3 mm^3 and the “Tumor Weight” value is reported as 0.77 g.
`Cc1c(/C=c2\[nH]c(=O)/c(=C/c3cccc(C(=O)c4ccc(F)cc4)c3)[nH]c2=O)ncn1C` [15a] registered a melting point of 224 to 226 °C. In addition, the IC50 in series [1] (72 h) was 21.1 ± 1.3 nM. In series [1] (Homo sapiens, NCI-H460, 72 h), this compound yielded an IC50 of 21.1 nM.
With `CC(C)c1c(/C=c2\[nH]c(=O)/c(=C/c3cccc(C(=O)c4ccc(F)cc4)c3)[nH]c2=O)ncn1CCN` [16b], the melting point was 190 to 192 °C. Also, in series [3], the IC50 was determined as 5.92 ± 0.39 nM. In series [5], the IC50 turned out to be 3.27 ± 0.09 nM. In series [1] (72 h), this compound registered an IC50 of 11.3 ± 3.45 nM. In series [1] (Homo sapiens, NCI-H460, 72 h), the IC50 was found to be 11.3 nM.
Turning to `C#CCn1cnc(/C=c2\[nH]c(=O)/c(=C/c3cccc(C(=O)c4ccc(F)cc4)c3)[nH]c2=O)c1C(C)C` [15q], the melting point lay in the range of 150 to 152 °C. In series [3], this compound gave an IC50 of 0.67 ± 0.035 nM. Besides, the IC50 in series [5] is 1.15 ± 0.042 nM. The compound further displayed an IC50 in series [1] (Homo sapiens, NCI-H460, 72 h) of 1.49 ± 0.31 nM.
Compound `Cc1c(/C=c2\[nH]c(=O)/c(=C/c3cccc(C(=O)c4ccc(F)cc4)c3)[nH]c2=O)ncn1CCCNC(=O)OC(C)(C)C` [15n] yielded a melting point of 206 to 208 °C. In series [1] (Homo sapiens, NCI-H460, 72 h), the IC50 turned out to be 145.7 ± 0.27 nM.
The corresponding values for `CCn1cnc(/C=c2\[nH]c(=O)/c(=C/c3cccc(Oc4ccc(F)cc4)c3)[nH]c2=O)c1C(C)C` [15e] are 195 to 198 °C and 12.2 ± 0.27 nM.
In the same order, the values of `CCCCn1cnc(/C=c2\[nH]c(=O)/c(=C/c3cccc(C(=O)c4ccc(F)cc4)c3)[nH]c2=O)c1C(C)C` [15k] are 198 to 201 °C and 0.94 ± 0.11 nM.
In the same order, the values of `CC(C)c1c(/C=c2\[nH]c(=O)/c(=C/c3cccc(C(=O)c4ccc(F)cc4)c3)[nH]c2=O)ncn1C` [15c] are 225 to 227 °C and 3.65 ± 0.18 nM.
In turn, `CC(C)c1c(/C=c2\[nH]c(=O)/c(=C/c3cccc(C(=O)c4ccc(F)cc4)c3)[nH]c2=O)ncn1CCCN` [16d] displayed a melting point of 199 to 201 °C. For the same compound, the IC50 in series [3] turned out to be 2.45 ± 0.42 nM. In addition, the IC50 in series [5] turned out to be 2.35 ± 1.75 nM. The compound also returned an IC50 in series [1] (Homo sapiens, NCI-H460, 72 h) of 5.38 ± 1.46 nM.
With `CC(C)(C)c1[nH]cnc1/C=c1\[nH]c(=O)/c(=C/c2cccc(C(=O)c3ccc(F)cc3)c2)[nH]c1=O` [compound 1], the “Effect on microtubule networks” value in series [4] (2 nM) is on record as “microtubule networks were damaged”.
Compound `CCCn1cnc(/C=c2\[nH]c(=O)/c(=C/c3cccc(C(=O)c4ccc(F)cc4)c3)[nH]c2=O)c1C(C)C` [15i] yielded a melting point of 200 to 202 °C. In series [1] (Homo sapiens, NCI-H460, 72 h), the IC50 was 1.67 ± 0.15 nM.
In the same order, the values of `CC(C)c1c(/C=c2\[nH]c(=O)/c(=C/c3cccc(C(=O)c4ccc(F)cc4)c3)[nH]c2=O)ncn1CCNC(=O)OC(C)(C)C` [15m] are 204 to 206 °C and 27.3 ± 1.32 nM.

One may read the melting point as the temperature, or range, at which the solid turns liquid.

Source of the values: article PMC9785606, “Design and Synthesis of Novel Phenylahistin Derivatives Based on Co-Crystal Structures as Potent Microtubule Inhibitors for Anti-Cancer Therapy” (Marine Drugs, 2022).
